Results from PMC2360532, “Somatostatin receptor expression, tumour response, and quality of life in patients with advanced hepatocellular carcinoma treated with long-acting octreotide” (British Journal of Cancer, 2006).

What was measured:
clinical = details: human, plasma, im, 20 mg
Source text: (§1) Blood was also sampled for octreotide pharmacokinetics and assessment of chromogranin A levels before the 4th and 7th doses.
(§2) Samples were taken immediately before the 4th and 7th doses of octreotide (weeks 12 and 24 of treatment). These time points were selected in order to assess trough octreotide plasma concentrations at steady state after three doses and to determine potential octreotide accumulation in this cirrhotic population with more continued dosing. Additional samples were also collected in some cases. […] The lower limit of quantification was 50 pg ml^−1 for a 50 μl plasma sample.

[1] = cited from earlier work
Source text: Safety is important for people with comorbidities. There is limited information available about the elimination kinetics of octreotide in cirrhosis. […] Since pharmacokinetics may be altered in patients with cirrhosis, it was considered necessary to determine whether liver impairment predisposes to toxicity and ...

[2] = patients who remained on the study for 6 months or more
Source text: as §1, §2

HCC = details: ref Kouroumalis et al (1998), cited from earlier work
Source text: High-affinity somatostatin receptors capable of binding octreotide are present in approximately 40% of HCC, and not in adjacent liver. However, the numbers of high-affinity receptors are lower than reported for neuroendocrine tumours ([Reubi et al, 1999]). Somatostatin is a potent inhibitor of several growth factors and angioneogenesis ([Flori ... || Most patients with advanced HCC have a dismal prognosis ([Leung and Johnson, 2001]). However, a treatment that benefits only a subset of patients may still be clinically worthwhile. The very different outcomes in the randomised trials by Kouroumalis and Yuen probably reflect differences in patient selection ([Kouroumalis et al, 1998]; [Yuen et al, 2002]). The Yuen study had subjects with more advanced disease, a higher proportion with viral hepatitis, and a median survival of only 2 months. Our study population was more similar to the Kouroumalis study population (Table 4) and our median survi ...

[3] = system: patients with advanced HCC; experiment: Serious adverse events and tolerability; format: in vivo, human
Description: The planned duration of treatment was 12 months in the absence of disease progression, unacceptable toxicity, or withdrawal at the patient's or doctor's discretion. An extension phase allowed treatment to continue beyond 12 months on an individual basis at the discretion of the principal investigator.
Subjects were seen monthly for clinical review, blood tests, and administration of the study drug. Response was assessed using the RECIST (response evaluation criteria in solid tumours) criteria ([Therasse et al, 2000]). Radiological assessment was undertaken 3-monthly and any partial or complete responses were confirmed 1 month later.

[4] = short-acting form, ref Jenkins et al (1998)

Compound: C[C@@H](O)[C@@H]1NC(=O)[C@H](CCCCN)NC(=O)[C@@H](Cc2c[nH]c3ccccc23)NC(=O)[C@H](Cc2ccccc2)NC(=O)[C@@H](NC(=O)[C@H](N)Cc2ccccc2)CSSC[C@@H](C(=O)N[C@H](CO)[C@@H](C)O)NC1=O [octreotide]
- level at 2016 h (clinical): 2.21 ng/mL
- level at 4032 h (clinical): 3.38 ng/mL
- level at 6480 h (clinical): 3.24 ng/mL
- Plasma concentrations ([1]; 30 mg i.m. dose, six patients with acromegaly (noncirrhotic), ref Stewart et al, 1995): 1.682 ± 0.174 ng/mL
- Clearance in patients with cirrhosis [1, 4]: reduced
- Half-life in patients with cirrhosis [1, 4]: prolonged
- Accumulation of octreotide in plasma [2]: no evidence of accumulation
- Median survival (HCC; short-acting octreotide arm vs 4 months in untreated control, HCC): 13 months
- 12-month survival (HCC; short-acting octreotide arm vs 13% in untreated control, P=0.002): 56%
- Serious adverse events attributed to the drug ([3]; 20 mg i.m. every 28 days, advanced HCC): No serious adverse events were attributed
- Treatment stopped because of adverse effects (cramps), cases ([3]; 63 patients): one
